Source: ChEMBL document CHEMBL1649495, “Sitafloxacin activity against Helicobacter pylori isolates, including those with gyrA mutations” (2009)
Values after ≈ are worked out from the molar mass of the structure shown.

Legend:
Assay type in all cases: functional
Helicobacter pylori [1] = assay: Antibacterial activity against Helicobacter pylori clinical isolates harboring gyrA Asn87 mutant gene by agar dilution method
Helicobacter pylori [2] = assay: Antibacterial activity against Helicobacter pylori clinical isolates harboring gyrA Asp91 mutant gene by agar dilution method
Helicobacter pylori [3] = assay: Antibacterial activity against Helicobacter pylori clinical isolates harboring mutation in gyrA gene by agar dilution method
Helicobacter pylori [4] = assay: Antibacterial activity against Helicobacter pylori clinical isolates harboring gyrA gene by agar dilution method

C[C@H]1COc2c(N3CCN(C)CC3)c(F)cc3c(=O)c(C(=O)O)cn1c23.C[C@H]1COc2c(N3CCN(C)CC3)c(F)cc3c(=O)c(C(=O)O)cn1c23.O [LEVOFLOXACIN]
MIC50 (Helicobacter pylori [1]): 8 µg/mL
MIC90 (Helicobacter pylori [1]): 16 µg/mL
MIC50 (Helicobacter pylori [2]): 4 µg/mL
MIC90 (Helicobacter pylori [2]): 8 µg/mL
MIC (Helicobacter pylori [3]): 0.12 µg/mL
MIC50 (Helicobacter pylori [4]): 0.25 µg/mL
MIC90 (Helicobacter pylori [4]): 0.25 µg/mL

C[C@H]1NCc2cc(-c3ccc4c(=O)c(C(=O)O)cn(C5CC5)c4c3OC(F)F)ccc21 [GARENOXACIN]
MIC50 (Helicobacter pylori [1]): 0.5 µg/mL (≈ 1.17 µM)
MIC90 (Helicobacter pylori [1]): 1 µg/mL (≈ 2.35 µM)
MIC50 (Helicobacter pylori [2]): 0.5 µg/mL (≈ 1.17 µM)
MIC90 (Helicobacter pylori [2]): 1 µg/mL (≈ 2.35 µM)
MIC (Helicobacter pylori [3]): ≤ 0.015 µg/mL
MIC50 (Helicobacter pylori [4]): 0.03 µg/mL (≈ 0.0704 µM)
MIC90 (Helicobacter pylori [4]): 0.06 µg/mL (≈ 0.141 µM)

N[C@@H]1CN(c2c(F)cc3c(=O)c(C(=O)O)cn([C@@H]4C[C@@H]4F)c3c2Cl)CC12CC2 [SITAFLOXACIN ANHYDROUS]
MIC50 (Helicobacter pylori [1]): 0.25 µg/mL (≈ 0.61 µM)
MIC90 (Helicobacter pylori [1]): 0.5 µg/mL (≈ 1.22 µM)
MIC50 (Helicobacter pylori [2]): 0.12 µg/mL (≈ 0.293 µM)
MIC90 (Helicobacter pylori [2]): 0.25 µg/mL (≈ 0.61 µM)
MIC (Helicobacter pylori [3]): ≤ 0.015 µg/mL
MIC50 (Helicobacter pylori [4]): 0.03 µg/mL (≈ 0.0732 µM)
MIC90 (Helicobacter pylori [4]): 0.03 µg/mL (≈ 0.0732 µM)
